Measured values published in patent US9458104B2 (priority 2012, dated 2016).

Assays:
[1] = target: T1, RORγ ligand binding domain (LBD) (Homo sapiens, UniProt P51449); assay: TR-FRET Activity Assay (ligand sensing assay, RORγ-LBD / coactivator peptide interaction); type: biochemical
T1 construct: made in house; host or cells: E. coli BL-21 (BL3), vector pDEST15
T1 sequence (P51449 269-508 limits assumed): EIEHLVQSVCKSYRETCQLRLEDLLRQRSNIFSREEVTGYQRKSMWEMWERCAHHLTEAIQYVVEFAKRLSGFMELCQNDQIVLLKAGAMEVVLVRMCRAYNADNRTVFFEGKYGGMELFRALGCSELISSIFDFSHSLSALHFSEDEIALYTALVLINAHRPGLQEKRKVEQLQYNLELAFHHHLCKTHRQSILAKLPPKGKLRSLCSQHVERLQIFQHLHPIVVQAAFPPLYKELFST
From the text: This method measures the ability of putative ligands to modulate the interaction between the purified bacterial expressed RORγ ligand binding domain (LBD) and synthetic N-terminally biotinylated peptides which are derived from nuclear receptor coactivator proteins such as but not limited to SRC1 (NcoA1), SRC2 (NcoA2, TIF2), SRC3 (NcoA3), PGC1α, PGC1β, CBP, GRIP1, TRAP220, RIP140.
The ligand-binding domain (LBD) of RORγ was expressed as fusion protein with GST in […] cells using the vector pDEST15. Cells were lysed by lysozyme-treatment and sonication, and the fusion proteins purified over glutathione sepharose (Pharmacia) according to the manufacturers instructions. For screening of compounds for their influence on the RORγ-peptide interaction, the LANCE technology (Perkin Elmer) was applied. This method relies on the binding dependent energy transfer from a donor to an acceptor fluorophor attached to the binding partner of interest. For ease of handling and reduction of background from compound fluorescence LANCE technology makes use of generic fluorophore labels and time resolved detection assays were done in a final volume of 25 μL in a 384 well plate, in a Tris-based buffer system (20 mM Tris-HCl pH6.8; 60 mM KCl, 1 mM DTT; 5 mM MgCl2; 35 ng/μL BSA), containing 20-60 ng/well recombinantly expressed RORγ-LBD fused to GST, 200-600 nM N-terminally biotinylated peptide, 200 ng/well Streptavidin-xIAPC conjugate (Prozyme) and 6-10 ng/well Eu W1024-antiGST (Perkin Elmer). DMSO content of the samples was kept at 1%.
After generation of the Tris-based buffer system, the potentially RORγ modulating ligands were diluted. […] The LANCE signal was detected by a Perkin Elmer EnVision™ Multilabel Counter. The results were visualized by plotting the ratio between the emitted light at 665 nm and 615 nm. […] Ligands that promote the complex formation induce a concentration-dependent increase in time-resolved fluorescent signal.
To assess the antagonistic potential of the compounds, IC50 values were determined using a Ligand Sensing Assay based on Time-resolved Fluorescence Energy Transfer (TR-FRET) as described above. The normalised TR-FRET assay values, using the following equation: 1000*665 nm measurement value/615 nm measurement value, were transferred to the program GraphPad Prism to generate graphs and dose response curves using the following equation: […]
This is identical to the “four parameter logistic equation”. The IC50 values are calculated using this equation. […] Is is understood that the data illustrated below may have reasonable variation depending on the specific conditions and procedures used by the person conducting the test.

RORγ = target: T2, RORγ (UniProt P51449); type: cell-based; details: 293T cells, 16 h; for pIC50 (FF): firefly (FF) luciferase; for pIC50 (REN): renilla normalised (RENnorm) luciferase
T2 construct: hRORg-LBD|aa259-518|NP_005051.2; hRORgt|aa1-497|NP_001001523 (RORg, t isoform, 497aa); mRORg-LBD|aa264-516|NP_035411
T2 sequence (P51449 1-518): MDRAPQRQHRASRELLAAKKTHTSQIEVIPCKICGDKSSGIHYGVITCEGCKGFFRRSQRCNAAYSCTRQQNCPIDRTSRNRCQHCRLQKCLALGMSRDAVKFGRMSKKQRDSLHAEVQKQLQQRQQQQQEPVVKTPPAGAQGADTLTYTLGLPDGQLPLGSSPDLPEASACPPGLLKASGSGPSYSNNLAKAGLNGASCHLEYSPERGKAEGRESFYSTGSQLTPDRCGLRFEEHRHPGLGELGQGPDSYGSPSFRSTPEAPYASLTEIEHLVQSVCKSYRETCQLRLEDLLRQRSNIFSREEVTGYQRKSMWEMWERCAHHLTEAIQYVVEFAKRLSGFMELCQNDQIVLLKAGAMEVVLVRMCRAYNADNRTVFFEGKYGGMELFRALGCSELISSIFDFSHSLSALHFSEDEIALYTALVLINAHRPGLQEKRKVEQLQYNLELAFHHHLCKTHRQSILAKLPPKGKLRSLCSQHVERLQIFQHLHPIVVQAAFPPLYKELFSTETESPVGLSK
Experimental: Determination of a ligand mediated Gal4 promoter driven transactivation to quantify ligand binding to RORγ was performed as follows: DNA encoding three different RORγ. protein fragments was cloned into vector pCMV-BD (Stratagene). Expression was under control of a CMV promoter and as fusion to the DNA-binding domain of the yeast protein GAL4. Other vectors used were pFR-Luc (Stratagene) as regulated reporter plasmid. pFR-Luc contains a synthetic promoter with five tandem repeats of the yeast GAL4 binding sites that control expression of the Photinus pyralis (American firefly) luciferase gene. In order to improve experimental accuracy the plasmid pRL-CMV was cotransfected. pRL-CMV contains the constitutive CMV promoter, controlling the expression of the Renilla reniformis luciferase.
All Gal4 reporter gene assays were done in 293T cells (DSMZ (German Collection of Microorganisms and Cell Cultures), Braunschweig, Germany, ACC635) grown in Minimum Essential Medium (MEM) with Phenol Red. The medium is supplemented with 10% fetal bovine serum, 0.1 mM nonessential amino acids, 1 mM sodium pyruvate, 1% Glutamax and 100 units Penicilin/[…] per mL at 37° C. in 5% CO2.
For the assay, […] were plated per well in 96 well plates in 100 μL per well, incubated over night at 37° C. in 5% CO2. The following day, medium was discarded and the cells were transiently transfected using 20 μL per well of a OptiMEM—PEI-based transfection-reagent (Sigma-Aldrich, 408727) including the three plasmids described above. About 4 h after addition of the transfection solution, fresh Minimal Essential Medium (MEM, same composition as used for plating cells, but without serum) was added. Then compound stocks, prediluted in MEM (same composition as used for plating cells) were added (final vehicle concentration not exceeding 0.1%).
All experiments were done at least in triplicates.
It is understood that the data illustrated below may have reasonable variation depending on the specific conditions and procedures used by the person conducting the test.

Cc1c(C(=O)NCCC(C)(C)C(=O)O)cn(-c2cc(C(C)(C)C)cc(C3(C)CC3)c2)c1CC1CCCCC1 [1/4] was tested, and the IC50 [1] was 398 nM, the “pIC50 (FF)” value (RORγ) was 7.2 and the “pIC50 (REN)” value (RORγ) was 7.2.
For Cc1c(C(=O)N[C@H]2C[C@H](C(=O)O)C2)cn(-c2cc(C(C)(C)C)cc(C3(C)CC3)c2)c1CC1CCCCC1 [1/5], the IC50 [1] was 1000 nM, the “pIC50 (FF)” value (RORγ) was 7.6 and the “pIC50 (REN)” value (RORγ) was 8.0.
In the case of Cc1c(C(=O)NC2CCOCC2)cn(-c2ccc(S(=O)(=O)NC(C)(C)C)c(C(C)(C)C)c2)c1CC1CCCCC1 [4/2], the IC50 [1] is reported as 631 nM, the “pIC50 (FF)” value (RORγ) is reported as 7.3 and the “pIC50 (REN)” value (RORγ) is reported as 7.5.
Cc1c(C(=O)NC2CCOCC2)cn(-c2ccc(S(=O)(=O)NC(C)(C)C)c(C(F)(F)F)c2)c1CC1CCCCC1 [4/3] was tested, and the IC50 [1] was 398 nM, the “pIC50 (FF)” value (RORγ) was 7.6 and the “pIC50 (REN)” value (RORγ) was 7.6.
Cn1c(C(=O)NC2CCOCC2)cc(-c2ccc(S(=O)(=O)NC(C)(C)C)c(C(C)(C)C)c2)c1CC1CCCCC1 [8/2] was tested, and the IC50 [1] was 398 nM, the “pIC50 (FF)” value (RORγ) was 7.1 and the “pIC50 (REN)” value (RORγ) was 7.3.
In the case of Cn1c(C(=O)NC2CCOCC2)cc(-c2cc(C(C)(C)C)cc(C3(C)CC3)c2)c1CC1CCCCC1 [8/3], the IC50 [1] is reported as 501 nM, the “pIC50 (FF)” value (RORγ) is reported as 7.1 and the “pIC50 (REN)” value (RORγ) is reported as 7.3.
With Cn1c(C(=O)N[C@H]2C[C@H](C(=O)O)C2)cc(-c2ccc(S(=O)(=O)NC(C)(C)C)c3ccccc23)c1CC1CCCCC1 [8/4] the IC50 [1] was 1000 nM and the “pIC50 (FF)” value (RORγ) was 7.7.
For Cn1c(C(=O)NCC2(O)CCS(=O)(=O)CC2)cc(-c2ccc(S(=O)(=O)NC(C)(C)C)c3ccccc23)c1CC1CCCCC1 [8/5], the IC50 [1] was 1000 nM, the “pIC50 (FF)” value (RORγ) was 7.6 and the “pIC50 (REN)” value (RORγ) was 7.6.
For Cn1c(C(=O)NC2CCS(=O)(=O)CC2)cc(-c2ccc(S(=O)(=O)NC(C)(C)C)c3ccccc23)c1CC1CCCCC1 [8/6], the IC50 [1] was 501 nM, the “pIC50 (FF)” value (RORγ) was 7.8 and the “pIC50 (REN)” value (RORγ) was 7.9.
With Cn1c(C(=O)NCC(C)(C)O)cc(-c2ccc(S(=O)(=O)NC(C)(C)C)c3ccccc23)c1CC1CCCCC1 [8/7] the IC50 [1] was 501 nM, the “pIC50 (FF)” value (RORγ) was 7.8 and the “pIC50 (REN)” value (RORγ) was 7.9.
For Cn1c(C(=O)NC23CCC(C(=O)O)(CC2)CC3)cc(-c2ccc(S(=O)(=O)NC(C)(C)C)c3ccccc23)c1CC1CCCCC1 [8/8], the IC50 [1] was 2000 nM, the “pIC50 (FF)” value (RORγ) was 8.4 and the “pIC50 (REN)” value (RORγ) was 8.4.
Cn1c(C(=O)NCCC(C)(C)C(=O)O)cc(-c2cc(C(C)(C)C)cc(C3(C)CC3)c2)c1CC1CCCCC1 [8/10] was tested, and the IC50 [1] was 794 nM, the “pIC50 (FF)” value (RORγ) was 7.4 and the “pIC50 (REN)” value (RORγ) was 7.5.
For Cn1c(C(=O)N[C@H]2C[C@H](C(=O)O)C2)cc(-c2ccc(S(=O)(=O)NC(C)(C)C)c3ccccc23)c1C(=O)C1CCCCC1 [26/2], the “pIC50 (FF)” value (RORγ) was 7.0 and the “pIC50 (REN)” value (RORγ) was 7.2.
For Cn1c(C(=O)NCC(C)(C)O)cc(-c2ccc(S(=O)(=O)NC(C)(C)C)c3ccccc23)c1C(=O)C1CCCCC1 [26/3], the “pIC50 (FF)” value (RORγ) was 7.5 and the “pIC50 (REN)” value (RORγ) was 7.8.
Cn1c(C(=O)NC2CCS(=O)(=O)CC2)cc(-c2ccc(S(=O)(=O)NC(C)(C)C)c3ccccc23)c1C(=O)C1CCCCC1 [26/4] was tested, and the “pIC50 (FF)” value (RORγ) was 7.7 and the “pIC50 (REN)” value (RORγ) was 7.8.
Cn1c(C(=O)NCC(C)(C)O)cc(-c2cc(C(C)(C)C)cc(C3(C)CC3)c2)c1C(=O)C1CCCCC1 [Example 26/1] was tested, and the “pIC50 (FF)” value (RORγ) was 7.8 and the “pIC50 (REN)” value (RORγ) was 7.9.
For CC(C)(C)c1cc(-n2nc(C(=O)N[C@H]3C[C@H](C(=O)O)C3)cc2OC2CCCCC2)cc(C2(C)CC2)c1 [Example 110, trans-3-(1-(3-(tert-Butyl)-5-(1-methylcyclopropyl)phenyl)-5-(cyclohexyloxy)-1H-pyrazole-3-carboxamido)cyclobutanecarboxylic acid], the “pIC50 (FF)” value (RORγ) was “nt/6.5/6.5” and the “pIC50 (REN)” value (RORγ) was “nt/6.5/6.5”.
CC(C)(C)c1cc(-n2nc(C(=O)N[C@H]3C[C@H](C(=O)O)C3)c(Cl)c2OC2CCCCC2)cc(C2(C)CC2)c1 [Example 111, trans-3-(1-(3-(tert-Butyl)-5-(1-methylcyclopropyl)phenyl)-4-chloro-5-(cyclohexyloxy)-1H-pyrazole-3-carboxamido)cyclobutanecarboxylic acid] was tested, and the “pIC50 (FF)” value (RORγ) was 7.3 and the “pIC50 (REN)” value (RORγ) was 7.5.
In the case of CC(C)(C)c1cc(-n2nc(C(=O)NC3CCOCC3)c(Cl)c2OC2CCCCC2)cc(C2(C)CC2)c1 [Example 111/1], the “pIC50 (FF)” value (RORγ) is reported as “nt/6.6/6.6” and the “pIC50 (REN)” value (RORγ) is reported as “nt/6.6/6.6”.
With CC(C)(C)NS(=O)(=O)c1ccc(-c2c(Cl)c(C(=O)NC34CCC(C(=O)O)(CC3)CC4)nn2CC2CCCCC2)c(Cl)c1Cl [Example 113, 4-(5-(4-(N-(tert-Butyl)sulfamoyl)-2,3-dichlorophenyl)-4-chloro-1-(cyclohexylmethyl)-1H-pyrazole-3-carboxamido)bicyclo[2.2.2]octane-1-carboxylic acid] the “pIC50 (FF)” value (RORγ) was 7.5 and the “pIC50 (REN)” value (RORγ) was 7.6.
In the case of CC(C)(C)NS(=O)(=O)c1ccc(-n2nc(C(=O)N[C@H]3C[C@H](C(=O)O)C3)c(Cl)c2CC2CCCCC2)c2ccccc12 [Example 114, (trans)-3-(1-(4-(N-(tert-Butyl)sulfamoyl)naphthalen-1-yl)-4-chloro-5-(cyclohexyl-methyl)-1H-pyrazole-3-carboxamido)cyclobutanecarboxylic acid], the “pIC50 (FF)” value (RORγ) is reported as “nt/6.8/6.8” and the “pIC50 (REN)” value (RORγ) is reported as “nt/6.8/6.8”.
CC(C)(C)NS(=O)(=O)c1ccc(-n2nc(C(=O)NC3CCS(=O)(=O)CC3)c(Cl)c2CC2CCCCC2)c2ccccc12 [Example 114/1] was tested, and the “pIC50 (FF)” value (RORγ) was 6.9 and the “pIC50 (REN)” value (RORγ) was 7.0.
In the case of Cc1c(C(=O)NC2CCS(=O)(=O)CC2)nc(-c2ccc(S(=O)(=O)NC(C)(C)C)c3ccccc23)n1CC1CCCCC1 [Example 320, 2-(4-(N-(tert-Butyl)sulfamoyl)naphthalen-1-yl)-1-(cyclohexylmethyl)-N-(1,1-dioxidotetrahydro-2H-thiopyran-4-yl)-5-methyl-1H-imidazole-4-carboxamide], the “pIC50 (FF)” value (RORγ) is reported as 5.9 and the “pIC50 (REN)” value (RORγ) is reported as 6.0.
